Consider one molecule from US20260345517A1, “DOSAGE REGIMENS FOR TREATING STARGARDT DISEASE” (Alkeus Pharmaceuticals, Inc., priority 2024, published 2026).

Series [1] can be described thus: TEASE-3: plasma gildeuretinol (replacement of plasma vitamin A). Type of series: in vivo, human. As to conditions: 14 mg daily, after the first two months, all three participants. How it is done: The tolerability and effects of gildeuretinol acetate in Stargardt Disease (Clinical trial group 3 also known as TEASE-3) study was an open-label, multicenter, case control study designed to evaluate the efficacy and safety of gildeuretinol acetate on the progression of Stargardt disease in asymptomatic individuals. The trial was conducted at multiple sites in the United States.
To assess the safety and efficacy of gildeuretinol acetate in preventing vision loss in asymptomatic individuals, gildeuretinol acetate 14 mg capsules was administered to individuals showing early signs of retinal damage while maintaining approximately 20/20 vision and no subjective loss of vision. […] Based on the above family history and clinical observations, the individuals were likely to develop retinal lesions, loss of photoreceptors, drops in retinal sensitivity, loss of visual acuity, indicating the onset of symptoms, i.e. a progression to the symptomatic phase, including vision loss within two years, mirroring the progression observed in their older siblings.
Patients received gildeuretinol acetate 14 mg capsules, to be taken orally once daily. Trial visits occurred every 6 months approximately following screening and treatment start visits.

The nature of series [2]: Open-label multiple dose pharmacokinetic study in healthy volunteers (percentage of deuterated vitamin A in plasma, LC/MS). In kind it is in vivo, human. As to conditions: fasting. How it is done:
Study Design: This was an open-label, non-randomized, multiple dose study in healthy volunteers aged 21 to 70 years of age (inclusion criteria). Subjects who met all entrance criteria at screening were invited to receive the study medication. There were six treatment arms: 2 mg/day, 3.5 mg/day, 5 mg/day, 7 mg/day, 10 mg/day and 14 mg/day gildeuretinol acetate. For the four lower dose groups, the dose regimen was one capsule per day, orally, to be taken at home, preferably in the evening unless a different time was preferred by the subject. For the two highest doses, the dose regimen was two capsules per day, one in the morning and one in the evening, although subjects with a preference to take both capsules at once were offered to do so. After taking the 1st dose at the study site, subjects were invited to return two and four weeks after starting the treatment.
The clinical staff made periodic calls to monitor adverse events and ensure subject compliance. In addition, a text message was sent daily to remind subjects to take their medication. Subjects were instructed to avoid foods that contain large amounts of vitamin A (such as liver-based products), including supplements containing vitamin A, and to report their vitamin A intake by answering a daily text message diary. Fruits and vegetables were permitted without restriction.
Deuterated retinol (gildeuretinol) (“D3”) and non-deuterated retinol (“Do”) and other vitamin A metabolites were measured to calculate the percentage of deuterated vitamin A in plasma. For all treatment groups, plasma samples were collected at baseline, 14±1 days (“2 weeks”) and 28±1 days (“4 weeks”) after initiation of treatment. Blood samples were usually collected following at least 10 hours of fasting (including last gildeuretinol acetate intake), preferably in the morning. For the 7 mg/day and the 14 mg/day groups only, after the first and last dose, blood samples were collected every 4 hours for 24 hours. A liquid chromatography/mass spectrometry assay was used to measure the metabolite levels.
Table 2 provides % D3 Retinol (gildeuretinol, i.e. the percentage of deuterated retinol (gildeuretinol) over total retinol (as deuterated+non-deuterated) in plasma measured 12-24 hours following gildeuretinol acetate intake.
Pharmacokinetic Results (integrated levels over 24 hours post dosing): total vitamin A in plasma, both deuterated (gildeuretinol) and non-deuterated (retinol), was measured every 4 hours following administration of 7 mg or 14 mg at the first dose, and following administration of the 28th dose (4 weeks of daily treatment). The area under the curve (AUC) was calculated and the % deuterated % D3 of total vitamin A (as retinol and gildeuretinol) was computed as an average over 24 hours.

Take `CC1=C(/C=C/C(C)=C/C=C/C(C)=C/CO)C(C)(C)CCC1` [gildeuretinol, C20D3-retinol]: the “replacement of plasma vitamin A (retinol + gildeuretinol) with gildeuretinol” value in series [1] turned out to be 80%. In addition, the “% gildeuretinol over retinol + gildeuretinol in plasma” value (from here on “% gildeuretinol”) in series [2] (2 mg/day, after 2 weeks of treatment) is on record as 27%; in series [2] (2 mg/day, after 4 weeks of treatment), 31%; in series [2] (3.5 mg/day, after 2 weeks of treatment) it was 39%; in series [2] (3.5 mg/day, after 4 weeks of treatment), 46%; in series [2] (5 mg/day, after 2 weeks of treatment), 53%; in series [2] (5 mg/day, after 4 weeks of treatment) it was 51%. The “% gildeuretinol” value in series [2] (7 mg/day, 24 hours post 1st dose) worked out at 27%; in series [2] (7 mg/day, after 2 weeks of treatment) it was 55%; in series [2] (7 mg/day, after 4 weeks of treatment), 63%; in series [2] (10 mg/day, after 2 weeks of treatment), 66%; in series [2] (10 mg/day, after 4 weeks of treatment), 72%; in series [2] (14 mg/day, 24 hours post 1st dose), 41%. Further, the “% gildeuretinol” value in series [2] (14 mg/day, after 2 weeks of treatment) stood at 64%; in series [2] (14 mg/day, after 4 weeks of treatment) it was 79%.
